Laboratory results published in PMC7724566, “Prospects for Clinical Development of Stat5 Inhibitor IST5-002: High Transcriptomic Specificity in Prostate Cancer and Low Toxicity In Vivo” (Cancers, 2020).

What was measured:
Stat5 = test: Ligand-induced Stat5 dimerization, two cell-based assays (summary); design: species or system human; settings: read-out: IC50, suppression of ligand-induced Stat5 dimerization; both cell-based dimerization assays
Excerpt: Down-regulation of Stat5 phosphorylation by IST5 can theoretically be caused by IST5 blocking Stat5 monomer docking to the activated receptor-Jak2 complex (Figure 1) and/or by IST5 inhibition of Jak2 kinase activity. […] To further investigate whether IST5 is able to disrupt dimerization of Stat5 molecules, we employed two separate cell-based assays. […] Because both phosphorylation and dimerization of Stat5 were inhibited at similar concentrations of IST5, it is difficult to determine whether disruption of Stat5 dimerization by IST5 is caused by suppression of Stat5 phosphorylation or a direct effect of IST5 in hindering Stat5 dimer-formation or both events occurring at the same time in the cell. However, it is known that heteromolecular interactions are easier to disrupt than interactions between two Stat5 monomers implying that the primary mechanism of action of IST5 may be suppression of Stat5 docking to the receptor-kinase complex. It is important to note that bypassing tyrosine kinases responsible for Stat5 phosphorylation by utilizing direct Stat5 inhibitor would be advantageous for therapy development for Stat5-regulated cancers because targeting Stat5 directly is likely to cause less off-target side effects than targeting kinases or cell surface receptors.

ABL1 = biological target: T1, ABL1 (Homo sapiens, UniProt P00519); test: Kinase Seeker luminescence cell-free assay; assay type: binding; settings: percent activity of kinase after exposure to IST5 1 µM
T1 construct: purchased Reaction Biology (JAK1/2/3, TYK2); Luceome Biotechnologies KinaseSeeker (others)
Protocol: (§1) For Jak1, Jak2, Jak3 and Tyk2, a radiometric filtration binding assay was conducted by Reaction Biologicals (Malvern, PA, USA) (Table 1). This radiometric assay is a cell-free assay which is based on conventional filter-binding assays, directly measuring kinase catalytic activity toward a specific substrate. For evaluation of the activity of the other kinases, the Kinase Seeker Technology was utilized (Luceome Biotechnologies, Tucson, AZ, USA), which is a luminescence-based cell-free assay. In this assay, the reassembly of luciferase fragments is mediated by the interaction of a kinase with an active site-dependent probe. The competitive displacement of the probe by an inhibitor is measured by a change in luminescence signal. Percent activity of each kinase after exposure to IST5 (1 µM) is presented.

ABL2 = biological target: T2, ABL2 (Homo sapiens, UniProt P42684); test: Kinase Seeker luminescence cell-free assay; assay type: binding; settings: percent activity of kinase after exposure to IST5 1 µM
T2 construct: purchased Reaction Biology (JAK1/2/3, TYK2); Luceome Biotechnologies KinaseSeeker (others)
Protocol: as §1

AKT2 = biological target: T3, AKT2 (Homo sapiens, UniProt P31751); test: Kinase Seeker luminescence cell-free assay; assay type: binding; settings: percent activity of kinase after exposure to IST5 1 µM
T3 construct: purchased Reaction Biology (JAK1/2/3, TYK2); Luceome Biotechnologies KinaseSeeker (others)
Protocol: as §1

AURKB = biological target: T4, AURKB (Homo sapiens, UniProt Q96GD4); test: Kinase Seeker luminescence cell-free assay; assay type: binding; settings: percent activity of kinase after exposure to IST5 1 µM
T4 construct: purchased Reaction Biology (JAK1/2/3, TYK2); Luceome Biotechnologies KinaseSeeker (others)
Protocol: as §1

AXL = biological target: T5, AXL (Homo sapiens, UniProt P30530); test: Kinase Seeker luminescence cell-free assay; assay type: binding; settings: percent activity of kinase after exposure to IST5 1 µM
T5 construct: purchased Reaction Biology (JAK1/2/3, TYK2); Luceome Biotechnologies KinaseSeeker (others)
Protocol: as §1

BLK = biological target: T6, BLK (Homo sapiens, UniProt P51451); test: Kinase Seeker luminescence cell-free assay; assay type: binding; settings: percent activity of kinase after exposure to IST5 1 µM
T6 construct: purchased Reaction Biology (JAK1/2/3, TYK2); Luceome Biotechnologies KinaseSeeker (others)
Protocol: as §1

CAMKK1 = biological target: T7, CAMKK1 (Homo sapiens, UniProt Q8N5S9); test: Kinase Seeker luminescence cell-free assay; assay type: binding; settings: percent activity of kinase after exposure to IST5 1 µM
T7 construct: purchased Reaction Biology (JAK1/2/3, TYK2); Luceome Biotechnologies KinaseSeeker (others)
Protocol: as §1

DDR2 = biological target: T8, DDR2 (Homo sapiens, UniProt Q16832); test: Kinase Seeker luminescence cell-free assay; assay type: binding; settings: percent activity of kinase after exposure to IST5 1 µM
T8 construct: purchased Reaction Biology (JAK1/2/3, TYK2); Luceome Biotechnologies KinaseSeeker (others)
Protocol: as §1

EPHA1 = biological target: T9, EPHA1 (Homo sapiens, UniProt P21709); test: Kinase Seeker luminescence cell-free assay; assay type: binding; settings: percent activity of kinase after exposure to IST5 1 µM
T9 construct: purchased Reaction Biology (JAK1/2/3, TYK2); Luceome Biotechnologies KinaseSeeker (others)
Protocol: as §1

FLT1 = biological target: T10, FLT1 (Homo sapiens, UniProt P17948); test: Kinase Seeker luminescence cell-free assay; assay type: binding; settings: percent activity of kinase after exposure to IST5 1 µM
T10 construct: purchased Reaction Biology (JAK1/2/3, TYK2); Luceome Biotechnologies KinaseSeeker (others)
Protocol: as §1

FLT2/3 = test: Kinase Seeker luminescence cell-free assay; assay type: binding; settings: percent activity of kinase after exposure to IST5 1 µM
Protocol: as §1

IKKe = biological target: T11, IKKe (Homo sapiens, UniProt Q14164); test: Kinase Seeker luminescence cell-free assay; assay type: binding; settings: percent activity of kinase after exposure to IST5 1 µM
T11 construct: purchased Reaction Biology (JAK1/2/3, TYK2); Luceome Biotechnologies KinaseSeeker (others)
Protocol: as §1

INSR = biological target: T12, INSR (Homo sapiens, UniProt P06213); test: Kinase Seeker luminescence cell-free assay; assay type: binding; settings: percent activity of kinase after exposure to IST5 1 µM
T12 construct: purchased Reaction Biology (JAK1/2/3, TYK2); Luceome Biotechnologies KinaseSeeker (others)
Protocol: as §1

ITK = biological target: T13, ITK (Homo sapiens, UniProt Q08881); test: Kinase Seeker luminescence cell-free assay; assay type: binding; settings: percent activity of kinase after exposure to IST5 1 µM
T13 construct: purchased Reaction Biology (JAK1/2/3, TYK2); Luceome Biotechnologies KinaseSeeker (others)
Protocol: as §1

MET = biological target: T14, MET (Homo sapiens, UniProt P08581); test: Kinase Seeker luminescence cell-free assay; assay type: binding; settings: percent activity of kinase after exposure to IST5 1 µM
T14 construct: purchased Reaction Biology (JAK1/2/3, TYK2); Luceome Biotechnologies KinaseSeeker (others)
Protocol: as §1

MLK1 = biological target: T15, MLK1 (Homo sapiens, UniProt P80192); test: Kinase Seeker luminescence cell-free assay; assay type: binding; settings: percent activity of kinase after exposure to IST5 1 µM
T15 construct: purchased Reaction Biology (JAK1/2/3, TYK2); Luceome Biotechnologies KinaseSeeker (others)
Protocol: as §1

MLK3 = biological target: T16, MLK3 (Homo sapiens, UniProt Q16584); test: Kinase Seeker luminescence cell-free assay; assay type: binding; settings: percent activity of kinase after exposure to IST5 1 µM
T16 construct: purchased Reaction Biology (JAK1/2/3, TYK2); Luceome Biotechnologies KinaseSeeker (others)
Protocol: as §1

MSK2 = biological target: T17, MSK2 (Homo sapiens, UniProt O75676); test: Kinase Seeker luminescence cell-free assay; assay type: binding; settings: percent activity of kinase after exposure to IST5 1 µM
T17 construct: purchased Reaction Biology (JAK1/2/3, TYK2); Luceome Biotechnologies KinaseSeeker (others)
Protocol: as §1

MUSK = biological target: T18, MUSK (Homo sapiens, UniProt O15146); test: Kinase Seeker luminescence cell-free assay; assay type: binding; settings: percent activity of kinase after exposure to IST5 1 µM
T18 construct: purchased Reaction Biology (JAK1/2/3, TYK2); Luceome Biotechnologies KinaseSeeker (others)
Protocol: as §1

PAK1 = biological target: T19, PAK1 (Homo sapiens, UniProt Q13153); test: Kinase Seeker luminescence cell-free assay; assay type: binding; settings: percent activity of kinase after exposure to IST5 1 µM
T19 construct: purchased Reaction Biology (JAK1/2/3, TYK2); Luceome Biotechnologies KinaseSeeker (others)
Protocol: as §1

PDGFRA = biological target: T20, PDGFRA (Homo sapiens, UniProt P16234); test: Kinase Seeker luminescence cell-free assay; assay type: binding; settings: percent activity of kinase after exposure to IST5 1 µM
T20 construct: purchased Reaction Biology (JAK1/2/3, TYK2); Luceome Biotechnologies KinaseSeeker (others)
Protocol: as §1

PIM1 = biological target: T21, PIM1 (Homo sapiens, UniProt P11309); test: Kinase Seeker luminescence cell-free assay; assay type: binding; settings: percent activity of kinase after exposure to IST5 1 µM
T21 construct: purchased Reaction Biology (JAK1/2/3, TYK2); Luceome Biotechnologies KinaseSeeker (others)
Protocol: as §1

PIM2 = biological target: T22, PIM2 (Homo sapiens, UniProt Q9P1W9); test: Kinase Seeker luminescence cell-free assay; assay type: binding; settings: percent activity of kinase after exposure to IST5 1 µM
T22 construct: purchased Reaction Biology (JAK1/2/3, TYK2); Luceome Biotechnologies KinaseSeeker (others)
Protocol: as §1

PYK1 = test: Kinase Seeker luminescence cell-free assay; assay type: binding; settings: percent activity of kinase after exposure to IST5 1 µM
Protocol: as §1

PYK2 = biological target: T23, PYK2 (Homo sapiens, UniProt Q14289); test: Kinase Seeker luminescence cell-free assay; assay type: binding; settings: percent activity of kinase after exposure to IST5 1 µM
T23 construct: purchased Reaction Biology (JAK1/2/3, TYK2); Luceome Biotechnologies KinaseSeeker (others)
Protocol: as §1

SLK = biological target: T24, SLK (Homo sapiens, UniProt Q9H2G2); test: Kinase Seeker luminescence cell-free assay; assay type: binding; settings: percent activity of kinase after exposure to IST5 1 µM
T24 construct: purchased Reaction Biology (JAK1/2/3, TYK2); Luceome Biotechnologies KinaseSeeker (others)
Protocol: as §1

SRC = biological target: T25, SRC (Homo sapiens, UniProt P12931); test: Kinase Seeker luminescence cell-free assay; assay type: binding; settings: percent activity of kinase after exposure to IST5 1 µM
T25 construct: purchased Reaction Biology (JAK1/2/3, TYK2); Luceome Biotechnologies KinaseSeeker (others)
Protocol: as §1

SYK = biological target: T26, SYK (Homo sapiens, UniProt P43405); test: Kinase Seeker luminescence cell-free assay; assay type: binding; settings: percent activity of kinase after exposure to IST5 1 µM
T26 construct: purchased Reaction Biology (JAK1/2/3, TYK2); Luceome Biotechnologies KinaseSeeker (others)
Protocol: as §1

TIE1 = biological target: T27, TIE1 (Homo sapiens, UniProt P35590); test: Kinase Seeker luminescence cell-free assay; assay type: binding; settings: percent activity of kinase after exposure to IST5 1 µM
T27 construct: purchased Reaction Biology (JAK1/2/3, TYK2); Luceome Biotechnologies KinaseSeeker (others)
Protocol: as §1

TRKC = biological target: T28, TRKC (Homo sapiens, UniProt Q16288); test: Kinase Seeker luminescence cell-free assay; assay type: binding; settings: percent activity of kinase after exposure to IST5 1 µM
T28 construct: purchased Reaction Biology (JAK1/2/3, TYK2); Luceome Biotechnologies KinaseSeeker (others)
Protocol: as §1

VEGFR2 = biological target: T29, VEGFR2 (Homo sapiens, UniProt P35968); test: Kinase Seeker luminescence cell-free assay; assay type: binding; settings: percent activity of kinase after exposure to IST5 1 µM
T29 construct: purchased Reaction Biology (JAK1/2/3, TYK2); Luceome Biotechnologies KinaseSeeker (others)
Protocol: as §1

YES1 = biological target: T30, YES1 (Homo sapiens, UniProt P07947); test: Kinase Seeker luminescence cell-free assay; assay type: binding; settings: percent activity of kinase after exposure to IST5 1 µM
T30 construct: purchased Reaction Biology (JAK1/2/3, TYK2); Luceome Biotechnologies KinaseSeeker (others)
Protocol: as §1

p38g = biological target: T31, p38g (Homo sapiens, UniProt P53778); test: Kinase Seeker luminescence cell-free assay; assay type: binding; settings: percent activity of kinase after exposure to IST5 1 µM
T31 construct: purchased Reaction Biology (JAK1/2/3, TYK2); Luceome Biotechnologies KinaseSeeker (others)
Protocol: as §1

T29 sequence (P35968 20-1356): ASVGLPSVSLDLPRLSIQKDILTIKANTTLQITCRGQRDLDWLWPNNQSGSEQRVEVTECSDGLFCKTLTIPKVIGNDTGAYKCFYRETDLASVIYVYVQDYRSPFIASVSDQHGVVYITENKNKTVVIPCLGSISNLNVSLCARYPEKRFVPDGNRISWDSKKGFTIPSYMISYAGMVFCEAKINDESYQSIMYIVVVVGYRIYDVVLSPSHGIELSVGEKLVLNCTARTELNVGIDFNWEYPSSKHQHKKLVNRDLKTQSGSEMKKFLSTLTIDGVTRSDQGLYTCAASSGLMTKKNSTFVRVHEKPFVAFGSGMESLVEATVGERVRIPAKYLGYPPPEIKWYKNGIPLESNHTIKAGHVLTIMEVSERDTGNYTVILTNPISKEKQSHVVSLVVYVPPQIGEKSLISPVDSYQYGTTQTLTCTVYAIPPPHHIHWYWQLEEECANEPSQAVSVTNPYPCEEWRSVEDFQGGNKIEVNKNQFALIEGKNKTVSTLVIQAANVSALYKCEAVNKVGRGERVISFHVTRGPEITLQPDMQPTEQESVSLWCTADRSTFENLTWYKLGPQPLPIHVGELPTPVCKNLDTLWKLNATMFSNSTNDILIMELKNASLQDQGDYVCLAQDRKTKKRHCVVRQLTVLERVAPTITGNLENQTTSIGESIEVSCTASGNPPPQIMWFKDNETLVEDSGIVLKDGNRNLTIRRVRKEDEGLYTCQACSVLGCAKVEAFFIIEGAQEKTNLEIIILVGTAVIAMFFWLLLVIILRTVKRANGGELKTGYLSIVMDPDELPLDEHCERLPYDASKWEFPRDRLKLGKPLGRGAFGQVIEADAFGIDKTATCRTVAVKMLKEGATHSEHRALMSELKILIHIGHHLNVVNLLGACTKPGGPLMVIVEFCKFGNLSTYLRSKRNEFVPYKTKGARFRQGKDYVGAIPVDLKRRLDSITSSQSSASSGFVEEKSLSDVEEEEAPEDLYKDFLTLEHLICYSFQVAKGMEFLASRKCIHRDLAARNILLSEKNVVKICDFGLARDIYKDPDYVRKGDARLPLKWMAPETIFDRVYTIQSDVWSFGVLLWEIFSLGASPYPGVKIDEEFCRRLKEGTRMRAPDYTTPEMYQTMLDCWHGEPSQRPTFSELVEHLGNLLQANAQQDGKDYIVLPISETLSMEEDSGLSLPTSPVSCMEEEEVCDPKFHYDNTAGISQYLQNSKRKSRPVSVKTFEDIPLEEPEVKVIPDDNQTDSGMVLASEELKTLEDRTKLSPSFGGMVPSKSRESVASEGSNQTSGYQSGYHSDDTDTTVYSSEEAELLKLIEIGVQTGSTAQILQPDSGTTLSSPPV
T23 sequence (Q14289 whole entry): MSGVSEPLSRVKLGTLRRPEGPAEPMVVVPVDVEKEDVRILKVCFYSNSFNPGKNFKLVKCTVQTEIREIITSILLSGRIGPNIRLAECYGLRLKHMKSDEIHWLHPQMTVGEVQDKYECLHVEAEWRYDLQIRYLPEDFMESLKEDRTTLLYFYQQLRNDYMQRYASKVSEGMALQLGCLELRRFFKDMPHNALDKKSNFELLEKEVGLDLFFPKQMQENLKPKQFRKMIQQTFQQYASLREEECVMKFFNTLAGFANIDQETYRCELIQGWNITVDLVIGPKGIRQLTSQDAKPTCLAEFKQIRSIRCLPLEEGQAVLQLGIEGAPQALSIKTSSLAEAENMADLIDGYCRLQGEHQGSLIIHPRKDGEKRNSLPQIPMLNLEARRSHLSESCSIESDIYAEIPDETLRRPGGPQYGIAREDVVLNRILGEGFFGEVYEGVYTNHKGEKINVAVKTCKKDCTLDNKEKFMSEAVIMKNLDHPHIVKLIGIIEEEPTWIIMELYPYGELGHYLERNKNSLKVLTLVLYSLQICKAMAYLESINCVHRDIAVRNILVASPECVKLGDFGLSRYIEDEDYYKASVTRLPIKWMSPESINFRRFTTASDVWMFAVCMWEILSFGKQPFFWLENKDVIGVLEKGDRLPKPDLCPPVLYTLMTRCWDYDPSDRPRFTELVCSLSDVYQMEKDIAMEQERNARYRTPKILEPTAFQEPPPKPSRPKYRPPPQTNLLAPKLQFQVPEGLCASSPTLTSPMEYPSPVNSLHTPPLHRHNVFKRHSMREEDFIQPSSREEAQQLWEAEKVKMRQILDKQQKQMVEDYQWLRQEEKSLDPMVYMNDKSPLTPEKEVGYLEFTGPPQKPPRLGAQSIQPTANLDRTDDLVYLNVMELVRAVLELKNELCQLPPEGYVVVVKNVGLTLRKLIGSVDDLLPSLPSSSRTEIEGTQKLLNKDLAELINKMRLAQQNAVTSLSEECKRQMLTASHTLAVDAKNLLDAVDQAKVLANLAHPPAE
T21 sequence (P11309 whole entry): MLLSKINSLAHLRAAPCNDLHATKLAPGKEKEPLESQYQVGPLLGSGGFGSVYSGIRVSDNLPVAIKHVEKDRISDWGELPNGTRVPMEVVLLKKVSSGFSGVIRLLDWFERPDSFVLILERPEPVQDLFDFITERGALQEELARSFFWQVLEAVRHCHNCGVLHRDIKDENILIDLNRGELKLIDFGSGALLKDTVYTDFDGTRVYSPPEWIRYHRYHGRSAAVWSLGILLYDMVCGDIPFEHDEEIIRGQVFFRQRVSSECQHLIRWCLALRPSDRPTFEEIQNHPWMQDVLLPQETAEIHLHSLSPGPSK
T11 sequence (Q14164 whole entry): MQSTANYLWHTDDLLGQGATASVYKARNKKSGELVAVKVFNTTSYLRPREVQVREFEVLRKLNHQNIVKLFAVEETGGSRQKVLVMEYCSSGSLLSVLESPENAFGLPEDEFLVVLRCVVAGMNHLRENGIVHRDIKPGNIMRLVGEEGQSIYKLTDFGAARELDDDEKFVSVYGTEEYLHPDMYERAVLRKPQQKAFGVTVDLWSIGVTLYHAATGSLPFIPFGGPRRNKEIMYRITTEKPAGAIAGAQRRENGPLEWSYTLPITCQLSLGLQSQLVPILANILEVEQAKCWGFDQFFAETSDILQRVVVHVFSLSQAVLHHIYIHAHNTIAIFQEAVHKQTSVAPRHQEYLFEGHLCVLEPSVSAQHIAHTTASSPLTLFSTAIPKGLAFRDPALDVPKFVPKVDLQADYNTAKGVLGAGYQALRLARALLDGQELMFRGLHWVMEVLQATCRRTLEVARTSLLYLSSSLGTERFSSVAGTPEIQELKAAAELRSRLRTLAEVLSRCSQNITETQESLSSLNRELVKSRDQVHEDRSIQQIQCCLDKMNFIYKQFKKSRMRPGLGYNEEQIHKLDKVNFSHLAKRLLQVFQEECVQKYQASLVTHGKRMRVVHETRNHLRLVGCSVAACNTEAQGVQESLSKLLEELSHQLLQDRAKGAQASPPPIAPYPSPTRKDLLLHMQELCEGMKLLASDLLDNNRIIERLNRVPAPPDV
T8 sequence (Q16832 22-855): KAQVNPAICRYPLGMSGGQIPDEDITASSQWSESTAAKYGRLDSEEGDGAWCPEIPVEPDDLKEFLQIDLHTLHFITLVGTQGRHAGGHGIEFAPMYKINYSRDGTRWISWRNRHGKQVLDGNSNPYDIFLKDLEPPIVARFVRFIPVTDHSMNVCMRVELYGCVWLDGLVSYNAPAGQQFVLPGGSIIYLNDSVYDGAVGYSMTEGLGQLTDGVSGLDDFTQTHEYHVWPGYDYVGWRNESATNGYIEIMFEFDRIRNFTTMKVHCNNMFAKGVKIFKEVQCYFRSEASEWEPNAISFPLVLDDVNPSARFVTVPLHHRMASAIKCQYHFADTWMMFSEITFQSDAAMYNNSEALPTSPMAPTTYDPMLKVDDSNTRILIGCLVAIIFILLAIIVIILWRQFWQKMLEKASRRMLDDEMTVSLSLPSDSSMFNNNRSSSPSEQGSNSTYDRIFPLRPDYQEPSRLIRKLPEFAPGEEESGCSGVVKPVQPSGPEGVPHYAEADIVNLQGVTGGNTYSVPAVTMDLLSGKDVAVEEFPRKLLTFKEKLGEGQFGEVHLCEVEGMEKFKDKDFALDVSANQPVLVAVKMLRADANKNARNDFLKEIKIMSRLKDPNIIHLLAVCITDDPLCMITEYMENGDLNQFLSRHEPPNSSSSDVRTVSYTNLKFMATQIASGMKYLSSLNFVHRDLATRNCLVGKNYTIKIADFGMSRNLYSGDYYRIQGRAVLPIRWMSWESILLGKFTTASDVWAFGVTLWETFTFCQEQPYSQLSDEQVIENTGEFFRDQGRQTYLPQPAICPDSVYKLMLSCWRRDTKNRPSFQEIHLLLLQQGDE
T13 sequence (Q08881 whole entry): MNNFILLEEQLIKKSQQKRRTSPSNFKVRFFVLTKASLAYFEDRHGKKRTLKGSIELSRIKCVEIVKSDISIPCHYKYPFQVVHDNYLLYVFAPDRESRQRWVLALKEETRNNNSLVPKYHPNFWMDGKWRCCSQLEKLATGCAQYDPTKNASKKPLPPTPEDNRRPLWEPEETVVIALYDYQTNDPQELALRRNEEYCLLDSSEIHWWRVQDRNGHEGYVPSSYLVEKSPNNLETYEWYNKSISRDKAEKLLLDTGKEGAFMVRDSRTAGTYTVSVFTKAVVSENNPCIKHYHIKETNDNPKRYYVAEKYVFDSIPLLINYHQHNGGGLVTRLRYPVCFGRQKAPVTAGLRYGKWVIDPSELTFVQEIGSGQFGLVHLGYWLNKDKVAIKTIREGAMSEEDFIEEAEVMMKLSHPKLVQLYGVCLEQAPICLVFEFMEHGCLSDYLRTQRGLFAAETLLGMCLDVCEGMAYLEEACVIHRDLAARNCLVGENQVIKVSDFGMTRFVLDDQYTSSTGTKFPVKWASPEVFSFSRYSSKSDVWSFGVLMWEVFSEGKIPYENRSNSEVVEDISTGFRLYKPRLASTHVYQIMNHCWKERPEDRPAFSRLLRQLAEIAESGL

Structure (SMILES): O=P(O)(O)OCC1OC(n2cnc3c(NCc4ccccc4)ncnc32)C(O)C1O (stereo not shown) [IST5]
- IC50 (Stat5): 1000 to 1300 nM
- Activity (ABL1): 88.3%
- Activity (ABL2): 88.6%
- Activity (AKT2): 94.3%
- Activity (AURKB): 96.0%
- Activity (AXL): 90.4%
- Activity (BLK): 100.0%
- Activity (CAMKK1): 94.2%
- Activity (DDR2): 97.4%
- Activity (EPHA1): 94.0%
- Activity (FLT1): 88.4%
- Activity (FLT2/3): 93.6%
- Activity (IKKe): 84.8%
- Activity (INSR): 91.0%
- Activity (ITK): 100.0%
- Activity (MET): 100.0%
- Activity (MLK1): 100.0%
- Activity (MLK3): 93.5%
- Activity (MSK2): 90.0%
- Activity (MUSK): 100.0%
- Activity (PAK1): 98.8%
- Activity (PDGFRA): 100.0%
- Activity (PIM1): 93.9%
- Activity (PIM2): 91.8%
- Activity (PYK1): 93.4%
- Activity (PYK2): 95.7%
- Activity (SLK): 92.6%
- Activity (SRC): 92.1%
- Activity (SYK): 92.1%
- Activity (TIE1): 100.0%
- Activity (TRKC): 93.4%
- Activity (VEGFR2): 89.1%
- Activity (YES1): 100.0%
- Activity (p38g): 100.0%
